Test results reported in patent US11413250B2, “Shape changing drug delivery devices and methods” (Incept, LLC, priority 2015, dated 2022).

Settings: in vivo test of Example 17
Method: The tolerability, pharmacokinetics, and pharmacodynamics of the formulations from examples 1 and 2 were evaluated in Dutch belted rabbits through 6 months. 112 eyes of naïve Dutch belted rabbits ([…]) were bilaterally dosed with either a necked fiber or a coiled fiber and were sacrificed at 1, 3 and 6 months to test for biocompatibility or pharmacokinetics.

With `CNC(=O)c1ccccc1Sc1ccc2c(/C=C/c3ccccn3)n[nH]c2c1` [Axitinib] the “Toxicity of the delivered amounts” value was “not toxic”.
